Results reported in patent publication US11993599B2, “Therapeutic compounds” (Genentech, Inc., priority 2021, dated 2024).

Key:
Assay type in all cases: cell-based
[1] = target: T1, BRG1 (Homo sapiens, UniProt P51532); assay: Immunofluorescence assay for BRG1 degradation in SW1573 cells; details: 20 hours incubation; for DC50: immunofluorescence mean nuclear signal, read-out: BRG1 IF Degradation IC50; for Dmax: SW1573, 20 h, normalized to a known degrader control, read-out: BRG1 IF Degradation Sinf (%)
T1 construct: either BRM primary antibody (Cell signaling Cat #11966) or BRG primary antibody (Abcam, ab 110641); endogenous in cells; host or cells: SW1573
T1 sequence (P51532 whole entry): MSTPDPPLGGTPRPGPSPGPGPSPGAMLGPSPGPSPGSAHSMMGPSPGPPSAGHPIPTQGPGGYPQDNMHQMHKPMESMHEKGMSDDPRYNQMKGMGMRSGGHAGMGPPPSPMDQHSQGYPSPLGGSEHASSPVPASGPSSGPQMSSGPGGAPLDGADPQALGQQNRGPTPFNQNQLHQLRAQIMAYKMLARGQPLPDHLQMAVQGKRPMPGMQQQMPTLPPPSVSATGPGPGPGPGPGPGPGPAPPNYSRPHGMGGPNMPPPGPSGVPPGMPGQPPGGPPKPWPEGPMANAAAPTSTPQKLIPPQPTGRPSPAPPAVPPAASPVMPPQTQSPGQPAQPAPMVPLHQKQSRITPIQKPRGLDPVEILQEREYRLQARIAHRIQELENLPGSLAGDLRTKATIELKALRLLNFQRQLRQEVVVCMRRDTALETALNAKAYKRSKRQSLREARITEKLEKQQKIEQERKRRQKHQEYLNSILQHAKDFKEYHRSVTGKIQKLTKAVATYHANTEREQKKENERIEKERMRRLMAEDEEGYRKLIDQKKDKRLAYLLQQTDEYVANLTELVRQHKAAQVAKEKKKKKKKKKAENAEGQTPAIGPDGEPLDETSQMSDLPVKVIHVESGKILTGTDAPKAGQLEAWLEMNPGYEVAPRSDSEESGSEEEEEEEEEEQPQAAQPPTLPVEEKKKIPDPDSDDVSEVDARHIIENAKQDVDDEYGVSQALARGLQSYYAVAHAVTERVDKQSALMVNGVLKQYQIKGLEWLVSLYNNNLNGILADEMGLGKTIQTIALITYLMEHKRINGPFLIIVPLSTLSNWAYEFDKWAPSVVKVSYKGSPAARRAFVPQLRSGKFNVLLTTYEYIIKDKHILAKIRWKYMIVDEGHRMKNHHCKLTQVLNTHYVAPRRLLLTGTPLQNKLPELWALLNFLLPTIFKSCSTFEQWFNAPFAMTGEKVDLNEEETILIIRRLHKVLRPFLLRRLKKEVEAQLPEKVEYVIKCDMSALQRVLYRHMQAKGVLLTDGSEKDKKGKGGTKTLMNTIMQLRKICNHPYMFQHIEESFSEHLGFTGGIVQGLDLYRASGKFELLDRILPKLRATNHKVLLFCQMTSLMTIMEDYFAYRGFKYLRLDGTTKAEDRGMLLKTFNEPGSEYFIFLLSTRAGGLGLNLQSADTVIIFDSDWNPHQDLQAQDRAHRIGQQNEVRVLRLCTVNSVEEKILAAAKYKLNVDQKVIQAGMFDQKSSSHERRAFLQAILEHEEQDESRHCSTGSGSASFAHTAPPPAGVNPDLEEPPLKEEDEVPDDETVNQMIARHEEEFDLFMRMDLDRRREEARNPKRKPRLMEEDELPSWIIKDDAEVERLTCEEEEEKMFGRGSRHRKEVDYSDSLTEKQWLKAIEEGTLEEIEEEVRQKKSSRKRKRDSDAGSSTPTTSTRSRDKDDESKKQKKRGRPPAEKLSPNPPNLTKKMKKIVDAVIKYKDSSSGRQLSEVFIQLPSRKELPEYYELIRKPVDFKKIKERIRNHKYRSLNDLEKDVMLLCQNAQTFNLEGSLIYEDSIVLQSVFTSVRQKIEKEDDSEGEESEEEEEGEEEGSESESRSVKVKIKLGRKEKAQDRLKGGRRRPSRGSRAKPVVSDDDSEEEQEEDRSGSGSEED
In short: (§1)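 Cells seeded one day before dosing, exposed to compounds for 20 hours, then fixed, permeabilized, blocked and stained overnight at 4 °C with anti-BRM or anti-BRG1 antibody. Nuclear fluorescence intensity per cell, normalized to a degrader control, gave concentration-response curves fitted with a floating maximum.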

[2] = target: T2, BRM (Homo sapiens, UniProt P51531); assay: Immunofluorescence assay for BRM degradation in SW1573 cells; set-up: treated overnight at 4° C. with either BRM primary antibody (Cell signaling Cat #11966) or BRG primary antibody; endogenous in cells; host or cells: SW1573; details: 20 hours incubation; for DC50: immunofluorescence mean nuclear signal, read-out: BRM IF Degradation IC50; for BRM IF Degradation Sinf (%): normalized to a known degrader control
T2 sequence (P51531 whole entry): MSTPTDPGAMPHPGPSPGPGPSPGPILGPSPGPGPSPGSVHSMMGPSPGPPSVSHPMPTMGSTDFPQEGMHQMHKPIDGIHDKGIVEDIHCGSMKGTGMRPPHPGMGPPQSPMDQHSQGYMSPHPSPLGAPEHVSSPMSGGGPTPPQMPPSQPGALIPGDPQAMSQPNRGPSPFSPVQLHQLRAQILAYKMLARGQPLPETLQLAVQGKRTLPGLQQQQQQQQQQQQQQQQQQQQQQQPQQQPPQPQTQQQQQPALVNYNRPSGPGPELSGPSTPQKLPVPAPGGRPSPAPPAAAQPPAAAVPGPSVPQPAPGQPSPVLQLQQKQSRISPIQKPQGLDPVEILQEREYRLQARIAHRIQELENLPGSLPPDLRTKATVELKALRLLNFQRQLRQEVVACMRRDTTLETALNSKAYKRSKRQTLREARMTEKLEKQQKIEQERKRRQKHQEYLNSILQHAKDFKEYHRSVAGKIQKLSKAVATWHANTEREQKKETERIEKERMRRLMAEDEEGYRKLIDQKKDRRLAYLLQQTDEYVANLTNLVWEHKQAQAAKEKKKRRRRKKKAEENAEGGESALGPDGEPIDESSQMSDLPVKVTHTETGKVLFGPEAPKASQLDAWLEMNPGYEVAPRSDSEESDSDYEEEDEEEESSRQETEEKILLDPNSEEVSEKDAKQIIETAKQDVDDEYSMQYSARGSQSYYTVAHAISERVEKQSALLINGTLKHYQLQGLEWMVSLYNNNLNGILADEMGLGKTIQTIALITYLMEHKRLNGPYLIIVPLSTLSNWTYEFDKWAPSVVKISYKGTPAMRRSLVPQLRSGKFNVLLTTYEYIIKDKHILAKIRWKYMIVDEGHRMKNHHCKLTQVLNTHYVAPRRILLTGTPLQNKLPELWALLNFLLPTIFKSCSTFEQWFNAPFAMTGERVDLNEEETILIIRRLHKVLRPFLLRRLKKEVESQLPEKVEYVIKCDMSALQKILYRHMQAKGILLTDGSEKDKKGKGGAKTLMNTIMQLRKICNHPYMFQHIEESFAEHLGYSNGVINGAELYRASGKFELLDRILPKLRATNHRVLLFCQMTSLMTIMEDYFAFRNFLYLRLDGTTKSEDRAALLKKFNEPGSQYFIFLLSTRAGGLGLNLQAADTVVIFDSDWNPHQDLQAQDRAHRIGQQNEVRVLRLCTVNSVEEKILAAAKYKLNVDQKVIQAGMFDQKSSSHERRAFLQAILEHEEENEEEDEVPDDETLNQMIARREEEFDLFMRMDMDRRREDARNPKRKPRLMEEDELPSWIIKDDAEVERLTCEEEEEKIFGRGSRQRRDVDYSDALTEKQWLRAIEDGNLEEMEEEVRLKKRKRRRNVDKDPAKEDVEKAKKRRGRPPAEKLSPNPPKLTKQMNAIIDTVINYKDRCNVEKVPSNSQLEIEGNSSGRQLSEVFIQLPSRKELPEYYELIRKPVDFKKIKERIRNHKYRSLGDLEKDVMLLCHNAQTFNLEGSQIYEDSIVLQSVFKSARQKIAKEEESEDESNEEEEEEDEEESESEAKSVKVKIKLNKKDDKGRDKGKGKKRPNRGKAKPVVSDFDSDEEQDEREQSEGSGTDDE
In short: as §1

[3] = target: T2, BRM; assay: HiBIT nanoluciferase complementation screen for BRM degraders; details: 18 hours, BRM-HiBIT KI Hela cells, luminescence normalized: DMSO only = 0%, no cells = −100%; for Median HiBiT activity 1 μM: compound 1 μM; for Median HiBiT activity 10 μM: compound 10 μM
Description: Example B-1: HiBIT Nanoluciferase Complementation Screen for BRM Degraders
To assess BRM degradation, compounds were screened for their effect of BRM levels using the HiBIT nanoluciferase complementation strategy developed at Promega. In brief, a HELA cell line that was genetically modified via CRISPR/CAS9 was used to fuse the HiBIT sequence at the 3′ end of BRM (BRM-HiBIT KI Hela). BRM protein levels were then detected using the Nano-Glo HiBIT lytic detection reagent (Promega).
The screened compounds were plated into a white 384-well plate at 10 μM and 1 μM in 25 nL DMSO using an Echo dispenser (Labcyte). BRM-HiBIT KI Hela cells were seeded in the compound plate at 5000 cell per well at 25 μl in DMEM growth media (containing 10% FBS, 1% Glutamax (GIBCO cat #31053-028), lx Penicillin-Streptomycin (ROCHE, cat #1107444001), 4.5 g/L D-Glucose, and no phenol red). After incubation with compounds for 18 hours at 37° C., cell viability was assessed by the addition of 5 μl Cell Titer-Fluor reagent (Promega). After 30 s of mixing on an orbital shaker, and 30 minutes incubation at 37° C., fluorescence was measured with an INFINITE F500 (Tecan) (380-400 nm excitation, 505 nm emission). Next, to assess BRM HiBIT levels, 30 μl of Nano-Glo HiBIT lytic detection reagent (Promega) containing 1:50 Nano-Glo HiBIT lytic substrate and 1:100 LgBIT protein per ml of lytic buffer was added. After shaking on an orbital shaker at 350 rpm for 10 minutes, luminescence was measured on the INFINITE F500 (Tecan). To assess compound effects, luminescence signal was normalized with the mean of wells treated with DMSO only set to 0% and the mean of wells containing no cells set to −100%. Note that, in Table 4, the “Compound Number” corresponds to that used in Table 1.

Compound | DC50 [1] [nM] | Dmax [1] [%] | DC50 [2] [nM] | Median HiBiT activity 1 μM [3] [%] | Median HiBiT activity 10 μM [3] [%] | BRM IF Degradation Sinf (%) [2]
Cn1cc(C#Cc2cc(N3C4CCC3CN(c3cc(-c5ccccc5O)nnc3N)C4)ccn2)cn1 [Compound 21, 2-(6-amino-5-(8-(2-((1-methyl-1H-pyrazol-4-yl)ethynyl)pyridin-4-yl)-3,8-diazabicyclo[3.2.1]octan-3-yl)pyridazin-3-yl)phenol] | 10 to 100 | 0 to 30 | > 100 | −32.7297 | −42.1813 | –
Nc1nnc(-c2ccccc2O)cc1N1CC2CCC(C1)N2c1ccnc(C#CC2CNCCO2)c1 (stereo not shown) [Compound 7, 2-(6-amino-5-(8-(2-(morpholin-2-ylethynyl)pyridin-4-yl)-3,8-diazabicyclo[3.2.1]octan-3-yl)pyridazin-3-yl)phenol] | > 100 | – | < 10 | −56.5569 | −25.5864 | E (E indicates −30%-−70%)
Nc1nnc(-c2ccccc2O)cc1N1CC2CCC(C1)N2c1ccnc(C#CCCCCO)c1 [Compound 27, 2-(6-amino-5-(8-(2-(6-hydroxyhex-1-yn-1-yl)pyridin-4-yl)-3,8-diazabicyclo[3.2.1]octan-3-yl)pyridazin-3-yl)phenol] | > 100 | – | > 100 | −23.7734 | −28.4819 | D (D indicates 0-−30%)
Nc1nnc(-c2ccccc2O)cc1N1CC2CCC(C1)N2c1ccnc(C#CC2CCNCC2)c1 [Compound 19, 2-(6-amino-5-(8-(2-(piperidin-4-ylethynyl)pyridin-4-yl)-3,8-diazabicyclo[3.2.1]octan-3-yl)pyridazin-3-yl)phenol] | > 100 | 30 to 70 | 10 to 100 | −36.9943 | −56.3342 | E (E indicates −30%-−70%)
NCCCCCCC#Cc1cc(N2C3CCC2CN(c2cc(-c4ccccc4O)nnc2N)C3)ccn1 [Compound 11, 2-(6-amino-5-(8-(2-(8-aminooct-1-yn-1-yl)pyridin-4-yl)-3,8-diazabicyclo[3.2.1]octan-3-yl)pyridazin-3-yl)phenol] | 10 to 100 | 30 to 70 | 10 to 100 | −46.2503 | −53.1423 | F (F indicates −71%-−120%)
Nc1nnc(-c2ccccc2O)cc1N1CC2CCC(C1)N2c1ccnc(C#CCN2CCNCC2=O)c1 [Compound 10, 1-(3-(4-(3-(3-amino-6-(2-hydroxyphenyl)pyridazin-4-yl)-3,8-diazabicyclo[3.2.1]octan-8-yl)pyridin-2-yl)prop-2-yn-1-yl)piperazin-2-one] | > 100 | – | 10 to 100 | −50.554 | −56.7556 | E (E indicates −30%-−70%)
Nc1nnc(-c2ccccc2O)cc1N1CC2CCC(C1)N2c1ccnc(C#CCN2CCOCC2)c1 [Compound 9, 2-(6-amino-5-(8-(2-(3-morpholinoprop-1-yn-1-yl)pyridin-4-yl)-3,8-diazabicyclo[3.2.1]octan-3-yl)pyridazin-3-yl)phenol] | < 10 | 0 to 30 | 10 to 100 | −50.6553 | −33.5251 | E (E indicates −30%-−70%)
Nc1nnc(-c2ccccc2O)cc1N1CC2CCC(C1)N2c1ccnc(C#CCN2CCCC(N)C2)c1 (stereo not shown) [Compound 31, 2-(6-amino-5-(8-(2-(3-(3-aminopiperidin-1-yl)prop-1-yn-1-yl)pyridin-4-yl)-3,8-diazabicyclo[3.2.1]octan-3-yl)pyridazin-3-yl)phenol] | > 100 | – | > 100 | −16.7799 | −47.9900 | –
Nc1nnc(-c2ccccc2O)cc1N1CC2CCC(C1)N2c1ccnc(C#CC2CCCN2)c1 (stereo not shown) [Compound 14, 2-(6-amino-5-(8-(2-(pyrrolidin-2-ylethynyl)pyridin-4-yl)-3,8-diazabicyclo[3.2.1]octan-3-yl)pyridazin-3-yl)phenol] | 10 to 100 | 0 to 30 | < 10 | −42.9269 | −50.5501 | E (E indicates −30%-−70%)
Nc1nnc(-c2ccccc2O)cc1N1CC2CCC(C1)N2c1ccnc(C#CCC2CCCN2)c1 (stereo not shown) [Compound 16, 2-(6-amino-5-(8-(2-(3-(pyrrolidin-2-yl)prop-1-yn-1-yl)pyridin-4-yl)-3,8-diazabicyclo[3.2.1]octan-3-yl)pyridazin-3-yl)phenol] | 10 to 100 | 0 to 30 | 10 to 100 | −38.7074 | −29.4258 | E (E indicates −30%-−70%)
CN(CC#Cc1cc(N2C3CCC2CN(c2cc(-c4ccccc4O)nnc2N)C3)ccn1)CCO [Compound 3, 2-(6-amino-5-(8-(2-(3-((2-hydroxyethyl)(methyl)amino)prop-1-yn-1-yl)pyridin-4-yl)-3,8-diazabicyclo[3.2.1]octan-3-yl)pyridazin-3-yl)phenol] | 10 to 100 | 30 to 70 | 10 to 100 | −68.4262 | −39.6172 | E (E indicates −30%-−70%)
NCC(=O)NCCCc1cc(N2C3CCC2CN(c2cc(-c4ccccc4O)nnc2N)C3)ccn1 [Compound 32, 2-amino-N-(3-(4-(3-(3-amino-6-(2-hydroxyphenyl)pyridazin-4-yl)-3,8-diazabicyclo[3.2.1]octan-8-yl)pyridin-2-yl)propyl)acetamide] | 10 to 100 | 0 to 30 | 10 to 100 | −16.4623 | −30.3732 | E (E indicates −30%-−70%)
Nc1nnc(-c2ccccc2O)cc1N1CC2CCC(C1)N2c1ccnc(C#C[C@H]2CC[C@H](N)CC2)c1 [Compound 29, 2-(6-amino-5-(8-(2-(((1r,4r)-4-aminocyclohexyl)ethynyl)pyridin-4-yl)-3,8-diazabicyclo[3.2.1]octan-3-yl)pyridazin-3-yl)phenol] | > 100 | – | > 100 | −22.4859 | −33.4085 | –
Nc1nnc(-c2ccccc2O)cc1N1CC2CCC(C1)N2c1ccnc(C#CCN2CCC(N)C2)c1 (stereo not shown) [Compound 15, 2-(6-amino-5-(8-(2-(3-(3-aminopyrrolidin-1-yl)prop-1-yn-1-yl)pyridin-4-yl)-3,8-diazabicyclo[3.2.1]octan-3-yl)pyridazin-3-yl)phenol] | > 100 | 0 to 30 | > 100 | −41.5313 | −55.0083 | E (E indicates −30%-−70%)
Nc1nnc(-c2ccccc2O)cc1N1CC2CCC(C1)N2c1ccnc(C#CCCN2CCNCC2)c1 [Compound 1, 2-(6-amino-5-(8-(2-(4-(piperazin-1-yl)but-1-yn-1-yl)pyridin-4-yl)-3,8-diazabicyclo[3.2.1]octan-3-yl)pyridazin-3-yl)phenol] | > 100 | 71 to 120 | 10 to 100 | −87.0122 | −81.2914 | F (F indicates −71%-−120%)
Nc1nnc(-c2ccccc2O)cc1N1CC2CCC(C1)N2c1ccnc(C#CCOC2CCCNC2)c1 (stereo not shown) [Compound 12, 2-(6-amino-5-(8-(2-(3-(piperidin-3-yloxy)prop-1-yn-1-yl)pyridin-4-yl)-3,8-diazabicyclo[3.2.1]octan-3-yl)pyridazin-3-yl)phenol] | 10 to 100 | 0 to 30 | 10 to 100 | −45.7932 | −34.0604 | E (E indicates −30%-−70%)
